Where two headings read alike, the source gives them in different places.
Key:
[1] = system: KMS.12.BM cells; test: KMS.12.BM Cell Viability Assay (Example B1); assay type: cell-based, human; settings: 3 days, Cell Titer-GLO, read-out: KMS cellular IC50
How it was run: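 KMS.12.BM human myeloma cells, 5000 cells/well in RPMI with 10% FBS, exposed to a compound concentration range for 3 days. Viable cells measured by ATP-based Cell Titer-GLO luminescence after 10 min at room temperature.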

[2] = system: C-myc in KMS.12.BM cells; test: KMS.12.BM C-Myc ELISA Assay (Example C1); assay type: cell-based; settings: Homo sapiens, 2 h
Method: KMS.12.BM C-Myc ELISA Assay
KMS.12.BM cell line (human myeloma) was purchased from JCRB (Osaka, Japan) and maintained in RPMI with 10% FBS culture medium. To measure the C-myc inhibitory activity of the compounds, the KMS.12.BM cells are plated in the RPMI culture medium at 75000 cells/well/per 200 μL into a 96-well flat bottom polystyrene tissue culture plate (Corning through VWR, NJ), in the presence or absence of a concentration range of test compounds. After 2 h, cells are pelleted and lysed with Cell Extraction Buffer (BioSource, Carlsbad, Calif.) in the presence of protease inhibitors (Life Technologies, Grand Island, N.Y. and Sigma, St Louis, Mo.). Clarified lyses are tested in a C-myc commercial ELISA (Life Technologies, Grand Island, N.Y.).

IC50 [2] [nM]	Structure (SMILES)	IC50 ([1]; Homo sapiens, 72 h) [nM]	further results
< 1000	Cc1noc(C)c1-c1ccc2[nH]c(=O)n3c2c1OC(C)C3c1ccccc1 (centres unmarked) [Example 3, 7-(3,5-Dimethylisoxazol-4-yl)-5-methyl-4-phenyl-4,5-dihydroimidazo[1,5,4-de][1,4]benzoxazin-2(1H)-one]	< 1000	
< 1000	Cc1noc(C)c1-c1ccc2[nH]c(=O)n3c2c1OCC3c1ccccc1OCC(=O)NCCO (centres unmarked) [Example 50, 2-{2-[7-(3,5-Dimethylisoxazol-4-yl)-2-oxo-1,2,4,5-tetrahydroimidazo[1,5,4-de][1,4]benzoxazin-4-yl]phenoxy}-N-(2-hydroxyethyl)acetamide]	< 1000	
< 1000	Cc1noc(C)c1-c1ccc2nc(NC(C)CO)n3c2c1OCC3c1ccccc1 (single isomer, unassigned) [Example 30, 2-{[7-(3,5-Dimethylisoxazol-4-yl)-4-phenyl-4,5-dihydroimidazo[1,5,4-de][1,4]benzoxazin-2-yl]amino}propan-1-ol]	< 1000	
< 1000	Cc1noc(C)c1-c1ccc2nc(C(=O)N3CCOCC3)n3c2c1OC[C@@H]3c1ccccn1 [Example 94, (4S)-7-(3,5-Dimethylisoxazol-4-yl)-2-(morpholin-4-ylcarbonyl)-4-pyridin-2-yl-4,5-dihydroimidazo[1,5,4-de][1,4]benzoxazine]	< 1000	
< 1000	Cc1noc(C)c1-c1ccc2[nH]c(=O)n3c2c1OCC3c1cccnc1C(=O)NC1CC1 (single isomer, unassigned) [Example 134, N-Cyclopropyl-3-[7-(3,5-dimethylisoxazol-4-yl)-2-oxo-1,2,4,5-tetrahydroimidazo[1,5,4-de][1,4]benzoxazin-4-yl]pyridine-2-carboxamide]	< 1000	
< 1000	Cc1noc(C)c1-c1ccc2nc(NCC(C)O)n3c2c1OCC3c1ccccc1 (centres unmarked) [Example 32, 1-{[7-(3,5-Dimethylisoxazol-4-yl)-4-phenyl-4,5-dihydroimidazo[1,5,4-de][1,4]benzoxazin-2-yl]amino}propan-2-ol]	< 1000	
< 1000	Cc1noc(C)c1-c1ccc2nc(C(N)=O)n3c2c1OC[C@@H]3c1ccccn1 [Example 96, (4S)-7-(3,5-Dimethylisoxazol-4-yl)-4-pyridin-2-yl-4,5-dihydroimidazo[1,5,4-de][1,4]benzoxazine-2-carboxamide]	< 1000	
< 1000	Cc1noc(C)c1-c1ccc2[nH]c(=O)n3c2c1OCC3c1cccnc1 (centres unmarked) [Example 5, 7-(3,5-Dimethylisoxazol-4-yl)-4-pyridin-3-yl-4,5-dihydroimidazo[1,5,4-de][1,4]benzoxazin-2(1H)-one]	< 1000	
< 1000	Cc1noc(C)c1-c1cc(C(C)O)c2[nH]c(=O)n3c2c1OC[C@@H]3c1ccccn1 (single isomer, unassigned) [Example 144A]	< 1000	
< 1000	Cc1noc(C)c1-c1cc(CNC(=O)NC(C)C)c2[nH]c(=O)n3c2c1OC[C@@H]3c1ccccn1 [Example 142, N-{[(4S)-7-(3,5-Dimethylisoxazol-4-yl)-2-oxo-4-pyridin-2-yl-1,2,4,5-tetrahydroimidazo[1,5,4-de][1,4]benzoxazin-9-yl]methyl}-N′-isopropylurea]		IC50 ([1]; Homo sapiens, KMS-12-BM, 72 h): < 1000 nM
< 1000	CC(=O)N1CCC(c2nc3ccc(-c4c(C)noc4C)c4c3n2[C@@H](c2ccccn2)CO4)CC1 [Example 109, (4S)-2-(1-Acetylpiperidin-4-yl)-7-(3,5-dimethylisoxazol-4-yl)-4-pyridin-2-yl-4,5-dihydroimidazo[1,5,4-de][1,4]benzoxazine]	< 1000	
< 1000	Cc1noc(C)c1-c1ccc2nc(C3CCNC3)n3c2c1OC[C@@H]3c1ccccn1 (single isomer, unassigned) [Example 106A]		
	Cc1noc(C)c1-c1ccc2[nH]c(=O)n3c2c1OCC3c1cccnc1C#N (racemic) [Example 126, 3-[7-(3,5-Dimethylisoxazol-4-yl)-2-oxo-1,2,4,5-tetrahydroimidazo[1,5,4-de][1,4]benzoxazin-4-yl]pyridine-2-carbonitrile]		IC50 ([1]; Homo sapiens, KMS-12-BM, 72 h): < 1000 nM
	CCC(=O)NC1CN(c2nc3ccc(-c4c(C)noc4C)c4c3n2[C@@H](c2ccccn2)CO4)C1 [Example 232, N-{1-[(4S)-7-(3,5-dimethylisoxazol-4-yl)-4-pyridin-2-yl-4,5-dihydroimidazo[1,5,4-de][1,4]benzoxazin-2-yl]azetidin-3-yl}propanamide]	< 1000	
	Cc1noc(C)c1-c1cc(C(O)C(C)C)c2[nH]c(=O)n3c2c1OCC3c1ccccn1 (centres unmarked) [Example 264, 7-(3,5-dimethylisoxazol-4-yl)-9-(1-hydroxy-2-methylpropyl)-4-pyridin-2-yl-4,5-dihydroimidazo[1,5,4-de][1,4]benzoxazin-2(1H)-one]	< 1000	
	Cc1noc(C)c1-c1ccc2nc(N3CCN(CC(=O)N(C)C)CC3)n3c2c1OC[C@@H]3c1ccccn1 [Example 151, 2-{4-[(4S)-7-(3,5-Dimethylisoxazol-4-yl)-4-pyridin-2-yl-4,5-dihydroimidazo[1,5,4-de][1,4]benzoxazin-2-yl]piperazin-1-yl}-N,N-dimethylacetamide]	< 1000	
	CCOC(=O)C1Oc2c(-c3c(C)noc3C)ccc3[nH]c(=O)n(c23)C1c1ccccc1 (centres unmarked) [Example 23, Ethyl 7-(3,5-dimethylisoxazol-4-yl)-2-oxo-4-phenyl-1,2,4,5-tetrahydroimidazo[1,5,4-de][1,4]benzoxazine-5-carboxylate]	< 1000	
	Cc1noc(C)c1-c1ccc2nc(NC(C)CO)n3c2c1OCC3c1ccccc1 (single isomer, unassigned) [Example 31, 2-{[7-(3,5-Dimethylisoxazol-4-yl)-4-phenyl-4,5-dihydroimidazo[1,5,4-de][1,4]benzoxazin-2-yl]amino}propan-1-ol]		IC50 [1]: < 1000 nM
	Cc1noc(C)c1-c1ccc2nc(N3CCNCC3)n3c2c1OCC3c1ccccc1 (centres unmarked) [Example 40, 7-(3,5-Dimethylisoxazol-4-yl)-4-phenyl-2-piperazin-1-yl-4,5-dihydroimidazo[1,5,4-de][1,4]benzoxazine]		IC50 ([1]; Homo sapiens, KMS-12-BM, 72 h): < 1000 nM
	COCC(=O)NC1CN(c2nc3ccc(-c4c(C)noc4C)c4c3n2[C@@H](c2ccccn2)CO4)C1 [Example 234, N-{1-[(4S)-7-(3,5-dimethylisoxazol-4-yl)-4-pyridin-2-yl-4,5-dihydroimidazo[1,5,4-de][1,4]benzoxazin-2-yl]azetidin-3-yl}-2-methoxyacetamide]	< 1000	
	Cc1noc(C)c1-c1ccc2[nH]c(=O)n3c2c1OCC3c1ccccc1OCC(=O)N(C)C (centres unmarked) [Example 51, 2-{2-[7-(3,5-Dimethylisoxazol-4-yl)-2-oxo-1,2,4,5-tetrahydroimidazo[1,5,4-de][1,4]benzoxazin-4-yl]phenoxy}-N,N-dimethylacetamide]	< 1000	
	Cc1noc(C)c1-c1ccc2nc(C3CCNCC3)n3c2c1OC[C@@H]3c1ccccn1 [Example 103]	< 1000	
	Cc1noc(C)c1-c1ccc2nc(N3CCN(C)C(=O)C3)n3c2c1OC[C@@H]3c1ccccn1 [Example 166, 4-[(4S)-7-(3,5-dimethylisoxazol-4-yl)-4-pyridin-2-yl-4,5-dihydroimidazo[1,5,4-de][1,4]benzoxazin-2-yl]-1-methylpiperazin-2-one]	< 1000	
	Cc1noc(C)c1-c1ccc2nc(N3CCN(CC(=O)N4CCCC4)CC3)n3c2c1OC[C@@H]3c1ccccn1 [Example 228, (4S)-7-(3,5-dimethylisoxazol-4-yl)-2-[4-(2-oxo-2-pyrrolidin-1-ylethyl)piperazin-1-yl]-4-pyridin-2-yl-4,5-dihydroimidazo[1,5,4-de][1,4]benzoxazine]	< 1000	
	CCN1CCN(c2nc3ccc(-c4c(C)noc4C)c4c3n2[C@@H](c2ccccn2)CO4)CC1 [Example 192, (4S)-7-(3,5-dimethylisoxazol-4-yl)-2-(4-ethylpiperazin-1-yl)-4-pyridin-2-yl-4,5-dihydroimidazo[1,5,4-de][1,4]benzoxazine]	< 1000	
	Cc1noc(C)c1-c1ccc2nc(N3CC[C@@H](NC(=O)C4CCOCC4)C3)n3c2c1OC[C@@H]3c1ccccn1 [Example 213, N-{(3R)-1-[(4S)-7-(3,5-dimethylisoxazol-4-yl)-4-pyridin-2-yl-4,5-dihydroimidazo[1,5,4-de][1,4]benzoxazin-2-yl]pyrrolidin-3-yl}tetrahydro-2H-pyran-4-carboxamide]	< 1000	
	Cc1noc(C)c1-c1cc(C(C)O)c2[nH]c(=O)n3c2c1OC[C@@H]3c1ccccn1 (single isomer, unassigned) [Example 144B]		IC50 [1]: < 1000 nM
	Cc1noc(C)c1-c1ccc2ncn3c2c1OC[C@@H]3c1ccccn1 [Example 92, (4S)-7-(3,5-Dimethylisoxazol-4-yl)-4-pyridin-2-yl-4,5-dihydroimidazo[1,5,4-de][1,4]benzoxazine]	< 1000	
	Cc1noc(C)c1-c1ccc2[nH]c(=O)n3c2c1OCC3c1ccc(F)cc1 (centres unmarked) [Example 49, 7-(3,5-Dimethylisoxazol-4-yl)-4-(4-fluorophenyl)-4,5-dihydroimidazo[1,5,4-de][1,4]benzoxazin-2(1H)-one]	< 1000	
	Cc1noc(C)c1-c1ccc2nc(N3CCC(NC(=O)C(F)(F)F)CC3)n3c2c1OC[C@@H]3c1ccccn1 [Example 242, N-{1-[(4S)-7-(3,5-dimethylisoxazol-4-yl)-4-pyridin-2-yl-4,5-dihydroimidazo[1,5,4-de][1,4]benzoxazin-2-yl]piperidin-4-yl}-2,2,2-trifluoroacetamide]	< 1000	
